Experimental findings from publication PMC5218480 (PLoS ONE, 2017) are described below.

For this experiment, the system named is MV-4-11 cells. In words: Gene expression microarray analysis (Affymetrix PrimeView) and GSEA. It counts as cell-based, human. Set-up: RFU PODN (11730768_x_at) / Fold change /veh PODN (11730768_x_at) / RFU LINC00158 (11744669_a_at) / Fold change /veh LINC00158 (11744669_a_at) / RFU DUSP10 (11751237_a_at) / Fold change /veh DUSP10 (11751237_a_at) / RFU ID3 (11757404_x_at) / Fold change /veh ID3 (11757404_x_at) / RFU PLEKHG5 (11737974_s_at) / Fold change /veh PLEKHG5 (11737974_s_at) / RFU LRRC4B (11730491_at) / Fold change /veh LRRC4B (11730491_at) / RFU GIMAP4 (11747438_a_at) / Fold change /veh GIMAP4 (11747438_a_at) / RFU KRT8 (11758183_x_at) / Fold change /veh KRT8 (11758183_x_at) / RFU CNN1 (11734310_a_at) / Fold change /veh CNN1 (11734310_a_at) / RFU VPS37D (11726825_at) / Fold change /veh VPS37D (11726825_at) / RFU C10orf10 (11716522_x_at) / Fold change /veh C10orf10 (11716522_x_at) / RFU KIR2DL2 /// KIR2DL4 /// KIR2DL5A /// KIR2DL5B /// KIR2DS1 /// KIR2DS2 /// KIR2DS3 /// KIR2DS4 /// KIR3DL3 /// KIR3DL3 /// KIR3DS1 (11738374_at) / Fold change /veh KIR2DL2 /// KIR2DL4 /// KIR2DL5A /// KIR2DL5B /// KIR2DS1 /// KIR2DS2 /// KIR2DS3 /// KIR2DS4 /// KIR3DL3 /// KIR3DL3 /// KIR3DS1 (11738374_at) / RFU C1QL1 (11718748_at) / Fold change /veh C1QL1 (11718748_at) / RFU TMPRSS4 (11747572_a_at) / Fold change /veh TMPRSS4 (11747572_a_at) / RFU HAMP (11756126_x_at) / Fold change /veh HAMP (11756126_x_at) / RFU RNFT2 (11725882_a_at) / Fold change /veh RNFT2 (11725882_a_at) / RFU NR4A2 (11747474_a_at) / Fold change /veh NR4A2 (11747474_a_at) / RFU ABCC12 (11746883_a_at) / Fold change /veh ABCC12 (11746883_a_at) / RFU TMEM136 (11760407_x_at) / Fold change /veh TMEM136 (11760407_x_at) / RFU CLDN22 /// WWC2 (11732394_at) / Fold change /veh CLDN22 /// WWC2 (11732394_at) / RFU HLA-DPB1 (11760878_x_at) / Fold change /veh HLA-DPB1 (11760878_x_at) / RFU SPINT1 (11716480_a_at) / Fold change /veh SPINT1 (11716480_a_at) / RFU GAP43 (11754022_s_at) / Fold change /veh GAP43 (11754022_s_at) / RFU A4GNT (11735810_at) / Fold change /veh A4GNT (11735810_at) / RFU PRB3 (11715151_x_at) / Fold change /veh PRB3 (11715151_x_at) / RFU TUBB4B (11761932_at) / Fold change /veh TUBB4B (11761932_at) / RFU CAPN14 (11732068_a_at) / Fold change /veh CAPN14 (11732068_a_at) / RFU TMCC2 (11721928_a_at) / Fold change /veh TMCC2 (11721928_a_at) / RFU IRGQ (11745062_a_at) / Fold change /veh IRGQ (11745062_a_at) / RFU FAM174B (11720279_a_at) / Fold change /veh FAM174B (11720279_a_at) / RFU TMPRSS4 (11748680_a_at) / Fold change /veh TMPRSS4 (11748680_a_at) / RFU FAM212B (11763350_a_at) / Fold change /veh FAM212B (11763350_a_at) / RFU PLEKHG5 (11743358_a_at) / Fold change /veh PLEKHG5 (11743358_a_at) / RFU ZSCAN30 (11745921_a_at) / Fold change /veh ZSCAN30 (11745921_a_at) / RFU CMKLR1 (11741424_a_at) / Fold change /veh CMKLR1 (11741424_a_at) / RFU LOC101060620 /// MAPK8IP1 (11723275_at) / Fold change /veh LOC101060620 /// MAPK8IP1 (11723275_at) / RFU SPTSSB (11747773_x_at) / Fold change /veh SPTSSB (11747773_x_at) / RFU PRSS12 (11739890_at) / Fold change /veh PRSS12 (11739890_at) / RFU BIN1 (11741810_x_at) / Fold change /veh BIN1 (11741810_x_at) / RFU WNT11 (11732464_a_at) / Fold change /veh WNT11 (11732464_a_at) / RFU C10orf10 (11716521_a_at) / Fold change /veh C10orf10 (11716521_a_at) / RFU C5orf56 (11738089_at) / Fold change /veh C5orf56 (11738089_at) / RFU CYB561 (11721691_x_at) / Fold change /veh CYB561 (11721691_x_at) / RFU ANKRD19P (11752326_a_at) / Fold change /veh ANKRD19P (11752326_a_at) / RFU OR2T12 /// OR2T33 /// OR2T8 (11738714_s_at) / Fold change /veh OR2T12 /// OR2T33 /// OR2T8 (11738714_s_at) / RFU VCAN (11748164_a_at) / Fold change /veh VCAN (11748164_a_at) / RFU JSRP1 (11732532_at) / Fold change /veh JSRP1 (11732532_at) / RFU KRTAP10-11 (11738290_x_at) / Fold change /veh KRTAP10-11 (11738290_x_at) / RFU MYO3A (11730013_a_at) / Fold change /veh MYO3A (11730013_a_at) / RFU EBF3 (11725865_a_at) / Fold change /veh EBF3 (11725865_a_at) / RFU CAMK2N1 (11719241_x_at) / Fold change /veh CAMK2N1 (11719241_x_at) / RFU C5orf56 (11738088_a_at) / Fold change /veh C5orf56 (11738088_a_at) / RFU OLFML3 (11715873_a_at) / Fold change /veh OLFML3 (11715873_a_at) / RFU LOC100653217 /// NTM (11731650_a_at) / Fold change /veh LOC100653217 /// NTM (11731650_a_at) / RFU MAPK11 (11762145_a_at) / Fold change /veh MAPK11 (11762145_a_at) / RFU FIZ1 (11724087_x_at) / Fold change /veh FIZ1 (11724087_x_at) / RFU OASL (11726364_x_at) / Fold change /veh OASL (11726364_x_at) / RFU SOX15 (11748057_x_at) / Fold change /veh SOX15 (11748057_x_at) / RFU CD79A (11719716_a_at) / Fold change /veh CD79A (11719716_a_at) / RFU HIST1H1D (11736915_at) / Fold change /veh HIST1H1D (11736915_at) / RFU CASKIN2 (11723855_a_at) / Fold change /veh CASKIN2 (11723855_a_at) / RFU LOC730098 (11760151_x_at) / Fold change /veh LOC730098 (11760151_x_at) / RFU OR4N2 (11742367_at) / Fold change /veh OR4N2 (11742367_at) / RFU PRRT2 (11749266_a_at) / Fold change /veh PRRT2 (11749266_a_at) / RFU SNX32 (11753110_a_at) / Fold change /veh SNX32 (11753110_a_at) / RFU CDHR5 (11726645_a_at) / Fold change /veh CDHR5 (11726645_a_at) / RFU RCAN1 (11760418_a_at) / Fold change /veh RCAN1 (11760418_a_at) / RFU FAM167A (11723789_a_at) / Fold change /veh FAM167A (11723789_a_at) / RFU FAM26E (11764081_at) / Fold change /veh FAM26E (11764081_at) / RFU ISYNA1 (11749810_s_at) / Fold change /veh ISYNA1 (11749810_s_at) / RFU ACY1 (11761880_at) / Fold change /veh ACY1 (11761880_at) / RFU 11764098_at / Fold change /veh 11764098_at / RFU SAMD14 (11745864_x_at) / Fold change /veh SAMD14 (11745864_x_at) / RFU NPB (11741838_a_at) / Fold change /veh NPB (11741838_a_at) / RFU TMPRSS6 (11731388_a_at) / Fold change /veh TMPRSS6 (11731388_a_at) / RFU KRTAP10-2 (11738614_at) / Fold change /veh KRTAP10-2 (11738614_at) / RFU ARHGAP8 /// PRR5-ARHGAP8 (11727945_x_at) / Fold change /veh ARHGAP8 /// PRR5-ARHGAP8 (11727945_x_at) / RFU KRTAP5-7 /// NADSYN1 (11734609_at) / Fold change /veh KRTAP5-7 /// NADSYN1 (11734609_at) / RFU RASL12 (11751679_a_at) / Fold change /veh RASL12 (11751679_a_at) / RFU CDKN2B (11736163_a_at) / Fold change /veh CDKN2B (11736163_a_at) / RFU PRF1 (11729649_at) / Fold change /veh PRF1 (11729649_at) / RFU, ZNF638 /// ZNF638-IT1 / Fold change vs veh, ZNF638 /// ZNF638-IT1 / RFU, PANK3 / Fold change vs veh, PANK3 / RFU, SH3YL1 / Fold change vs veh, SH3YL1 / RFU, ZEB2 / Fold change vs veh, ZEB2 / RFU, NRIP1 / Fold change vs veh, NRIP1 / RFU, PTTG1IP / Fold change vs veh, PTTG1IP / RFU, CAPN2 / Fold change vs veh, CAPN2 / RFU, MED14 / Fold change vs veh, MED14 / RFU, SNORA58 / Fold change vs veh, SNORA58 / RFU, C1orf63 / Fold change vs veh, C1orf63 / RFU, LRRFIP1 / Fold change vs veh, LRRFIP1 / RFU, NDUFAF7 / Fold change vs veh, NDUFAF7 / RFU, SLC12A2 / Fold change vs veh, SLC12A2 / RFU, IBTK / Fold change vs veh, IBTK / RFU, ESF1 / Fold change vs veh, ESF1 / Fold change vs veh, TMEM50B / RFU, TAOK1 / Fold change vs veh, TAOK1 / RFU, ACBD3 / Fold change vs veh, ACBD3 / RFU, TMA16 / Fold change vs veh, TMA16 / RFU, RWDD3 / Fold change vs veh, RWDD3 / RFU, BCAT1 / Fold change vs veh, BCAT1 / RFU, EDEM3 / Fold change vs veh, EDEM3 / RFU, TMEM33 / Fold change vs veh, TMEM33 / RFU, WDR75 / Fold change vs veh, WDR75 / RFU, AHCTF1 / Fold change vs veh, AHCTF1 / RFU, TFRC / Fold change vs veh, TFRC / RFU, ZDHHC17 / Fold change vs veh, ZDHHC17 / RFU, NOM1 / Fold change vs veh, NOM1 / RFU, ARL8B / Fold change vs veh, ARL8B / RFU, ZBTB11 / Fold change vs veh, ZBTB11 / RFU, TAMM41 / Fold change vs veh, TAMM41 / RFU, KIAA1704 /// LOC100996395 / Fold change vs veh, KIAA1704 /// LOC100996395 / RFU, ING1 / Fold change vs veh, ING1 / RFU, TRMT61B / Fold change vs veh, TRMT61B / RFU, FUBP3 / Fold change vs veh, FUBP3 / RFU, TP53 / Fold change vs veh, TP53 / RFU, TNKS2 / Fold change vs veh, TNKS2 / RFU, ZFP14 / Fold change vs veh, ZFP14 / RFU, ACTR2 / Fold change vs veh, ACTR2 / RFU, PPP3R1 / Fold change vs veh, PPP3R1 / RFU, PIK3R1 / Fold change vs veh, PIK3R1 / RFU, HNRNPA1 / Fold change vs veh, HNRNPA1 / RFU, RNF170 / Fold change vs veh, RNF170 / RFU, ZNF28 / Fold change vs veh, ZNF28 / RFU, RNGTT / Fold change vs veh, RNGTT / RFU, OGT / Fold change vs veh, OGT / RFU, BRD1 / Fold change vs veh, BRD1 / RFU, MARS / Fold change vs veh, MARS / RFU, ZNF655 / Fold change vs veh, ZNF655 / RFU, FAHD1 / Fold change vs veh, FAHD1 / RFU, BDP1 / Fold change vs veh, BDP1 / RFU, LRRCC1 / Fold change vs veh, LRRCC1 / RFU, ARID1A / Fold change vs veh, ARID1A / RFU, ZNF146 / Fold change vs veh, ZNF146 / RFU, ZNF330 / Fold change vs veh, ZNF330 / RFU, GPN3 / Fold change vs veh, GPN3 / RFU, C9orf123 / Fold change vs veh, C9orf123 / RFU, N4BP2L2 / Fold change vs veh, N4BP2L2 / RFU, ARFIP1 / Fold change vs veh, ARFIP1 / RFU, FAM179B / Fold change vs veh, FAM179B / RFU, BCL10 / Fold change vs veh, BCL10 / RFU, UHRF1BP1L / Fold change vs veh, UHRF1BP1L / RFU, BET1 / Fold change vs veh, BET1 / RFU, CNOT2 / Fold change vs veh, CNOT2 / RFU, ZNF268 / Fold change vs veh, ZNF268 / Fold change vs veh, ZNF507 / RFU, DGCR2 / Fold change vs veh, DGCR2 / RFU, WDSUB1 / Fold change vs veh, WDSUB1 / Fold change vs veh, HSP90B1 /// MIR3652 / RFU, ADSS / Fold change vs veh, ADSS / RFU, GK / Fold change vs veh, GK / RFU, ZNF148 / Fold change vs veh, ZNF148 / RFU, TAF9 / Fold change vs veh, TAF9 / RFU, SLC1A5 / Fold change vs veh, SLC1A5 / RFU, SLMO2 / Fold change vs veh, SLMO2 / RFU, ABCC4 / Fold change vs veh, ABCC4 / RFU, LOC101060439 /// RAP1B / Fold change vs veh, LOC101060439 /// RAP1B / RFU, RFX7 / Fold change vs veh, RFX7 / RFU, GTPBP10 / Fold change vs veh, GTPBP10 / RFU, CNEP1R1 / Fold change vs veh, CNEP1R1 / RFU, BIVM-ERCC5 /// ERCC5 / Fold change vs veh, BIVM-ERCC5 /// ERCC5 / RFU, ILF3 / Fold change vs veh, ILF3 / RFU 11762660_at / Fold change /veh 11762660_at / RFU VCAN (11757783_s_at) / Fold change /veh VCAN (11757783_s_at) / RFU DDX43 (11728927_at) / Fold change /veh DDX43 (11728927_at) / RFU KRT8 (11758188_x_at) / Fold change /veh KRT8 (11758188_x_at) / RFU NKD1 (11759106_at) / Fold change /veh NKD1 (11759106_at) / RFU SRD5A1 (11742802_a_at) / Fold change /veh SRD5A1 (11742802_a_at) / RFU TPSAB1 /// TPSB2 (11721975_s_at) / Fold change /veh TPSAB1 /// TPSB2 (11721975_s_at) / RFU GSTM3 (11746129_a_at) / Fold change /veh GSTM3 (11746129_a_at) / RFU IL23R (11737362_x_at) / Fold change /veh IL23R (11737362_x_at) / RFU TMEM51 (11727254_a_at) / Fold change /veh TMEM51 (11727254_a_at) / RFU PIWIL2 (11732686_x_at) / Fold change /veh PIWIL2 (11732686_x_at) / RFU ORM1 (11744905_x_at) / Fold change /veh ORM1 (11744905_x_at) / RFU CCDC152 (11743942_at) / Fold change /veh CCDC152 (11743942_at) / RFU ECM1 (11717891_a_at) / Fold change /veh ECM1 (11717891_a_at) / RFU IL23R (11748794_a_at) / Fold change /veh IL23R (11748794_a_at) / RFU TNFAIP8L3 (11732012_x_at) / Fold change /veh TNFAIP8L3 (11732012_x_at) / RFU MBOAT4 (11741988_at) / Fold change /veh MBOAT4 (11741988_at) / RFU 11764193_at / Fold change /veh 11764193_at / RFU TMEM53 (11763286_at) / Fold change /veh TMEM53 (11763286_at) / RFU MAGEB2 (11727129_at) / Fold change /veh MAGEB2 (11727129_at) / RFU TMEM200A (11744735_a_at) / Fold change /veh TMEM200A (11744735_a_at) / RFU CCDC152 (11751479_a_at) / Fold change /veh CCDC152 (11751479_a_at) / RFU FAM211A (11726209_a_at) / Fold change /veh FAM211A (11726209_a_at) / RFU RGS16 (11746705_a_at) / Fold change /veh RGS16 (11746705_a_at) / RFU VCAN (11755009_s_at) / Fold change /veh VCAN (11755009_s_at) / RFU RHOB (11743442_s_at) / Fold change /veh RHOB (11743442_s_at) / RFU RGS16 (11720943_a_at) / Fold change /veh RGS16 (11720943_a_at) / RFU RGS16 (11720944_at) / Fold change /veh RGS16 (11720944_at) / RFU, VPS4B / Fold change vs veh, VPS4B / RFU, CREB1 / Fold change vs veh, CREB1 / RFU, DNAJC13 / Fold change vs veh, DNAJC13 / RFU, GNAQ / Fold change vs veh, GNAQ / RFU, CDK5R1 / Fold change vs veh, CDK5R1 / RFU, ZRANB3 / Fold change vs veh, ZRANB3 / RFU, CUL4A / Fold change vs veh, CUL4A / RFU, CCNY / Fold change vs veh, CCNY / RFU, UFL1 / Fold change vs veh, UFL1 / RFU, COG3 / Fold change vs veh, COG3 / RFU, DIAPH2 / Fold change vs veh, DIAPH2 / RFU, SKA2 / Fold change vs veh, SKA2 / RFU, AFF3 / Fold change vs veh, AFF3 / RFU, LMF1 / Fold change vs veh, LMF1 / RFU, IPO11 / Fold change vs veh, IPO11 / RFU, DFFB / Fold change vs veh, DFFB / RFU, FOXP1 / Fold change vs veh, FOXP1 / RFU, CARD8 / Fold change vs veh, CARD8 / RFU, STRN3 / Fold change vs veh, STRN3 / RFU, ADK / Fold change vs veh, ADK / RFU, RASSF2 / Fold change vs veh, RASSF2 / RFU, WIPF1 / Fold change vs veh, WIPF1 / RFU, LARP1B / Fold change vs veh, LARP1B / RFU, RASA1 / Fold change vs veh, RASA1 / RFU, RB1 / Fold change vs veh, RB1 / RFU, PPFIA1 / Fold change vs veh, PPFIA1 / RFU, MAT2A / Fold change vs veh, MAT2A / RFU, CCT5 / Fold change vs veh, CCT5 / RFU, WDR92 / Fold change vs veh, WDR92 / RFU, CUX1 / Fold change vs veh, CUX1 / RFU, TTC7A / Fold change vs veh, TTC7A / RFU, TMEM135 / Fold change vs veh, TMEM135 / RFU, DEPTOR / Fold change vs veh, DEPTOR / RFU, CPM / Fold change vs veh, CPM / RFU, DNAJB6 / Fold change vs veh, DNAJB6 / RFU, CACNA2D3 / Fold change vs veh, CACNA2D3 / RFU, DTX4 / Fold change vs veh, DTX4 / RFU, TFCP2 / Fold change vs veh, TFCP2 / RFU, GMCL1 /// GMCL1P1 / Fold change vs veh, GMCL1 /// GMCL1P1 / RFU, AEBP2 / Fold change vs veh, AEBP2 / RFU, SNHG1 /// SNORD22 /// SNORD25 /// SNORD26 /// SNORD27 /// SNORD28 /// SNORD29 /// SNORD31 / Fold change vs veh, SNHG1 /// SNORD22 /// SNORD25 /// SNORD26 /// SNORD27 /// SNORD28 /// SNORD29 /// SNORD31 / Fold change (Aza/veh), C12orf56 (ProbeSet 11735607_a_at) / Fold change (ACY-1035/veh), C12orf56 (ProbeSet 11735607_a_at) / Fold change (Aza/veh), FGFR1OP (ProbeSet 11751329_s_at) / Fold change (ACY-1035/veh), FGFR1OP (ProbeSet 11751329_s_at) / Fold change (Aza/veh), VPS36 (ProbeSet 11739960_a_at) / Fold change (ACY-1035/veh), VPS36 (ProbeSet 11739960_a_at) / RFU SYPL1 (11715823_x_at) / Fold change /veh SYPL1 (11715823_x_at) / RFU IGFBP7 (11715501_s_at) / Fold change /veh IGFBP7 (11715501_s_at) / RFU REEP3 (11722064_at) / Fold change /veh REEP3 (11722064_at) / RFU IGLL1 (11728026_x_at) / Fold change /veh IGLL1 (11728026_x_at): dose or concentration left out as unconfirmed. The conditions noted are these: ProbeSet 11721559_s_at; LIST B.

For `Nc1ncn([C@@H]2O[C@H](CO)[C@@H](O)[C@H]2O)c(=O)n1` [azacitidine], the “Fold change vs veh, ZNF638 /// ZNF638-IT1” value was found to be 0.91.
